Test results published in PMC11167047 (Cell Death Discovery, 2024).

Columns and labels:
Assay in all cases: kinome screen (33PanQinase)
Type in all cases: biochemical
[1] = target: T1, PKCμ (Homo sapiens, UniProt Q15139)
T1 construct: purchased Reaction Biology Europe GmbH (formerly ProQinase)
T1 sequence (Q15139 1-912): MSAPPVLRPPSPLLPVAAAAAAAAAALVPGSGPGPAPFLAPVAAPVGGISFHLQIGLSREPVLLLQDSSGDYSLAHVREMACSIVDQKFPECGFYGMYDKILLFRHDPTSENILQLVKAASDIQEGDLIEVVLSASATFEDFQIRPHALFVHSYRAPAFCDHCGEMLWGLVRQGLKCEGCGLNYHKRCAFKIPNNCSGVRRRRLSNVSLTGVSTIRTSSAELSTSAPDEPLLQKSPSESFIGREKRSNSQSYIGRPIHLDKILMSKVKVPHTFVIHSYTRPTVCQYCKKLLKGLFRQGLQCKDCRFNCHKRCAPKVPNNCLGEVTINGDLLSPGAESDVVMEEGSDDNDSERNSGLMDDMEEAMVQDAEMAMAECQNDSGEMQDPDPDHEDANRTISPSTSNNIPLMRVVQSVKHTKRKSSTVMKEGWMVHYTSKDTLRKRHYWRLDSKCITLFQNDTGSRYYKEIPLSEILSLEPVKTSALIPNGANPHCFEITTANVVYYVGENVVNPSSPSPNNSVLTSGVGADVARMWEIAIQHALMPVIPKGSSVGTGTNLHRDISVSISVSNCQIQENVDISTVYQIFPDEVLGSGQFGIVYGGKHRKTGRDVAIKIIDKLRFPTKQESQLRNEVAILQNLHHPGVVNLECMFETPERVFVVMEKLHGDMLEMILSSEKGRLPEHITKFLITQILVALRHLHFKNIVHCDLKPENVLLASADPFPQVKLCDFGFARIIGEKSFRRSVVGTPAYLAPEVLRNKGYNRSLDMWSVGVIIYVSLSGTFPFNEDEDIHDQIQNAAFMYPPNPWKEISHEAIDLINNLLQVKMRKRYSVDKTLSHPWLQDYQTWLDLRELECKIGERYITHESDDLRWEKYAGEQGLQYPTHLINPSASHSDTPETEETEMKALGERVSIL
Description: (§1) The Kinome Screening was performed by Reaction Biology Europe GmbH (http://reactionbiology.com; Freiburg i. Br., Germany).

[2] = target: T2, CDK20/CycT1 (Homo sapiens, UniProt Q8IZL9)
T2 construct: purchased Reaction Biology Europe GmbH (formerly ProQinase)
Description: as §1

[3] = target: T3, RON (Homo sapiens, UniProt Q04912)
T3 construct: purchased Reaction Biology Europe GmbH (formerly ProQinase)
Description: as §1

[4] = target: T4, PKMYT1 (Homo sapiens, UniProt Q99640)
T4 construct: purchased Reaction Biology Europe GmbH (formerly ProQinase)
T4 sequence (Q99640 1-499): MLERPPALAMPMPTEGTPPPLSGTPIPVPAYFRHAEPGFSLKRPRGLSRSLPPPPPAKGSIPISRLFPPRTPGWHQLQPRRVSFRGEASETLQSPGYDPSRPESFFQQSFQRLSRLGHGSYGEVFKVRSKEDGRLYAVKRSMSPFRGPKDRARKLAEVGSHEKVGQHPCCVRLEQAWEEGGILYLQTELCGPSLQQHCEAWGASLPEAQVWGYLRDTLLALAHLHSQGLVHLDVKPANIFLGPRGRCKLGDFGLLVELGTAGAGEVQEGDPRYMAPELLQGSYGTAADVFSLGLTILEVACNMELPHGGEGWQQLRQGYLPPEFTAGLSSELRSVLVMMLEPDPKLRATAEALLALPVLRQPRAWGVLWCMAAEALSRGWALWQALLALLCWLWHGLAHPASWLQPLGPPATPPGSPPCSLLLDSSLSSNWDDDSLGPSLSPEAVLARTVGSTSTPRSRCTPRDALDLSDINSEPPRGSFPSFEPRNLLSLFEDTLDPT
Description: as §1

[5] = target: T5, FER (Homo sapiens, UniProt P16591)
T5 construct: purchased Reaction Biology Europe GmbH (formerly ProQinase)
Description: as §1

[6] = target: T6, MINK1 (Homo sapiens, UniProt Q8N4C8)
T6 construct: purchased Reaction Biology Europe GmbH (formerly ProQinase)
Description: as §1

[7] = target: T7, DYRK2 (Homo sapiens, UniProt Q92630)
T7 construct: purchased Reaction Biology Europe GmbH (formerly ProQinase)
T7 sequence (Q92630 1-601): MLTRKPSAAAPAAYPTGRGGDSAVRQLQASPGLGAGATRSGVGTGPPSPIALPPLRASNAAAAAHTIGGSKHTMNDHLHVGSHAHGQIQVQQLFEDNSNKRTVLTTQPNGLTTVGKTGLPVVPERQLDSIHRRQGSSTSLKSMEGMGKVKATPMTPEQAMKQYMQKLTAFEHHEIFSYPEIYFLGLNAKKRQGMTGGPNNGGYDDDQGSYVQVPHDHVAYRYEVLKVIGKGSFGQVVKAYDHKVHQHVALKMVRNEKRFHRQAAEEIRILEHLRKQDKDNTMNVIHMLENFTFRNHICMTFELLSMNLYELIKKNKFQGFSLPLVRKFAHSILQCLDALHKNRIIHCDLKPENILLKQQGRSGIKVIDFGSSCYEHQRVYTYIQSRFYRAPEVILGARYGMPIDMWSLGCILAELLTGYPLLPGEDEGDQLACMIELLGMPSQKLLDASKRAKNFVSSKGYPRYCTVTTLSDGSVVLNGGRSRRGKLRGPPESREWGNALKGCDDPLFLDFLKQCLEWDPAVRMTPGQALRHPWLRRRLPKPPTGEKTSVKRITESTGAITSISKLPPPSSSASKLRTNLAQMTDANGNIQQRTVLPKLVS
Description: as §1

[8] = target: T8, MAP3K11 (Homo sapiens, UniProt Q16584)
T8 construct: purchased Reaction Biology Europe GmbH (formerly ProQinase)
Description: as §1

[9] = target: T9, CDK13/CycK (Homo sapiens, UniProt Q14004)
T9 construct: purchased Reaction Biology Europe GmbH (formerly ProQinase)
Description: as §1

T3 sequence (Q04912 25-1400): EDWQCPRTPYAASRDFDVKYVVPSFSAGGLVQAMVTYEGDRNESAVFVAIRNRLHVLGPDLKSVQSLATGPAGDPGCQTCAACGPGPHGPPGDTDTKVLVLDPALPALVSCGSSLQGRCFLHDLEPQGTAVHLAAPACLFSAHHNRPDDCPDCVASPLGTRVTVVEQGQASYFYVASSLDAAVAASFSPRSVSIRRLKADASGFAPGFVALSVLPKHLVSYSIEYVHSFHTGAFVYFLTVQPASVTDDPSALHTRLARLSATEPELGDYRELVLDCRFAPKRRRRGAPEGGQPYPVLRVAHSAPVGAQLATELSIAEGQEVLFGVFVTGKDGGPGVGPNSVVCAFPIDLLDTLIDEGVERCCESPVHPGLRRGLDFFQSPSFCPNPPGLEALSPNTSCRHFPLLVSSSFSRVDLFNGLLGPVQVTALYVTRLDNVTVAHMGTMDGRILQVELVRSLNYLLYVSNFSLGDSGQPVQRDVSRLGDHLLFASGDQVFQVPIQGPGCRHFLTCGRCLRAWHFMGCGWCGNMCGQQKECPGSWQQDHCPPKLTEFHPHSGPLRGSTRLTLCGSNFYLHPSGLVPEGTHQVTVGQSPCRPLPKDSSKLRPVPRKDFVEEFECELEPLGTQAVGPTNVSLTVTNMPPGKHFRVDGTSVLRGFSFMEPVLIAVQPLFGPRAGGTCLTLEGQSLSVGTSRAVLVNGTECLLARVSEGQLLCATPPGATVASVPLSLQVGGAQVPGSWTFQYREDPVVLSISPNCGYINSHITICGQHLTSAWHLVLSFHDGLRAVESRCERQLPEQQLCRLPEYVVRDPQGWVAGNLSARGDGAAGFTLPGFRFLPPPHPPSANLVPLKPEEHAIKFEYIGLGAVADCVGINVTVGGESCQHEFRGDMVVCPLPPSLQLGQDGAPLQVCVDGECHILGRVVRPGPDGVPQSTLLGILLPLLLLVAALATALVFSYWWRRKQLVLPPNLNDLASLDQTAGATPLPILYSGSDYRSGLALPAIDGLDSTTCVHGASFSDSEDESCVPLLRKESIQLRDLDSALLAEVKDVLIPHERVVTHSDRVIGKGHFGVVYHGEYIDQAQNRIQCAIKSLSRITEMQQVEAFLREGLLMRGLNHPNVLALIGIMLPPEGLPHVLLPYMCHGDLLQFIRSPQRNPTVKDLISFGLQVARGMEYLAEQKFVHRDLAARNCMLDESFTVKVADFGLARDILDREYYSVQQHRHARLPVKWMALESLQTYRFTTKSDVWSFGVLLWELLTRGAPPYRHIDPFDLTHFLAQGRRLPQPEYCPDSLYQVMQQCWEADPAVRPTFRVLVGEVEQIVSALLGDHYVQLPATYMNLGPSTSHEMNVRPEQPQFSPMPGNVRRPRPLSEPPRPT
T6 sequence (Q8N4C8 whole entry): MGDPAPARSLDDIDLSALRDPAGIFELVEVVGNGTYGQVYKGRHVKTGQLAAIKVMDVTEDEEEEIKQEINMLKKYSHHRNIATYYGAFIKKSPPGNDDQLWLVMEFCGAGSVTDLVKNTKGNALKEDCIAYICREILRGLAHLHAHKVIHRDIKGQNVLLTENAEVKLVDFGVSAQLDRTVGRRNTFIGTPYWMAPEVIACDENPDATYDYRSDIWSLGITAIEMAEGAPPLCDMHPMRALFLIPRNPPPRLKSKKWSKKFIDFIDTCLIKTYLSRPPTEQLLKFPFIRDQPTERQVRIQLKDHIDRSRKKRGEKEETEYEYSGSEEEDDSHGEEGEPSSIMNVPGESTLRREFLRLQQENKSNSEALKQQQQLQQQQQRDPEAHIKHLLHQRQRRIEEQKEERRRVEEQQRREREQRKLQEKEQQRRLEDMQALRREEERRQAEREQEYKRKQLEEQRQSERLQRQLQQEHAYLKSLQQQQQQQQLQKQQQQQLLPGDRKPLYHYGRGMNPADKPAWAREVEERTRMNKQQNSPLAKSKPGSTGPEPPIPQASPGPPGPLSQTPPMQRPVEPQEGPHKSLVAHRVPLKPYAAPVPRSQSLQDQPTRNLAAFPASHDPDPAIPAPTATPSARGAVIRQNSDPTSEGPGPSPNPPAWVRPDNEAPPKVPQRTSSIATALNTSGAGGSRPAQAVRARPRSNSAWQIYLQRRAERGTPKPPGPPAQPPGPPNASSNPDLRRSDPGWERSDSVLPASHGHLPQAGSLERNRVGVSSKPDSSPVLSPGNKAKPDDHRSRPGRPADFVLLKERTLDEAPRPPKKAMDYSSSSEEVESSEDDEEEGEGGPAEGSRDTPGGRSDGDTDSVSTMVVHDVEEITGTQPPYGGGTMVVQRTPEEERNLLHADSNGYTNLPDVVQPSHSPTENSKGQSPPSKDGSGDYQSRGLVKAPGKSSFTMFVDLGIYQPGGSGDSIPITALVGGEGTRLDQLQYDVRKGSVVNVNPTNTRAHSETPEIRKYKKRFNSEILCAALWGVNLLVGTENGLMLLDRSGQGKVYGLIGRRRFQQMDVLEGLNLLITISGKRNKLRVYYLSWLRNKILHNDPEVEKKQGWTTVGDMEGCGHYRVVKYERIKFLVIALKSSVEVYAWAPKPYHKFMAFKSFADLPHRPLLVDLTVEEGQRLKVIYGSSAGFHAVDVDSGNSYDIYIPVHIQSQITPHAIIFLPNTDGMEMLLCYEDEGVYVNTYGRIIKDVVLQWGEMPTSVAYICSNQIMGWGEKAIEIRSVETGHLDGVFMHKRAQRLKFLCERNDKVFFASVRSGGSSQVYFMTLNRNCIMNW
T5 sequence (P16591 whole entry): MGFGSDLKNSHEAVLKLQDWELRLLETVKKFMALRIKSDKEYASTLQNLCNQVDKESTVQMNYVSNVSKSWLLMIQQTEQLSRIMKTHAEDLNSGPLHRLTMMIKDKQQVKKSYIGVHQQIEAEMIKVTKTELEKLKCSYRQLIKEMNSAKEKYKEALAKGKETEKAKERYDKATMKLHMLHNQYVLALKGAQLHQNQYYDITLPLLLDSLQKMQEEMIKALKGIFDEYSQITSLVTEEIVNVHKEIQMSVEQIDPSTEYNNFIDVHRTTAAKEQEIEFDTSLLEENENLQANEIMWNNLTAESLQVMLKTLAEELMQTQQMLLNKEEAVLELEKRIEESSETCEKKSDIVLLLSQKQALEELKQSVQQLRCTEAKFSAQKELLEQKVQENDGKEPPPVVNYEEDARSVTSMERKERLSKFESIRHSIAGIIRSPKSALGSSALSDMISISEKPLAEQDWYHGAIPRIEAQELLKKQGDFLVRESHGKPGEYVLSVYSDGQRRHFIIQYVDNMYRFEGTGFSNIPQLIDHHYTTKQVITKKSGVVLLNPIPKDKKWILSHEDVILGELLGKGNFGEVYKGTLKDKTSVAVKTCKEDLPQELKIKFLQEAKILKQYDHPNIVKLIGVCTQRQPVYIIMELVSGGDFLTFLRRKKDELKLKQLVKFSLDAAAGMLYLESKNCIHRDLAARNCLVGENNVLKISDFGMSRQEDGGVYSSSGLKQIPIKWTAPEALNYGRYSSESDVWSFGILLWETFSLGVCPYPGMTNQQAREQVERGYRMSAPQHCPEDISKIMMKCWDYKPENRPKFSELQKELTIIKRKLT
T2 sequence (Q8IZL9 whole entry): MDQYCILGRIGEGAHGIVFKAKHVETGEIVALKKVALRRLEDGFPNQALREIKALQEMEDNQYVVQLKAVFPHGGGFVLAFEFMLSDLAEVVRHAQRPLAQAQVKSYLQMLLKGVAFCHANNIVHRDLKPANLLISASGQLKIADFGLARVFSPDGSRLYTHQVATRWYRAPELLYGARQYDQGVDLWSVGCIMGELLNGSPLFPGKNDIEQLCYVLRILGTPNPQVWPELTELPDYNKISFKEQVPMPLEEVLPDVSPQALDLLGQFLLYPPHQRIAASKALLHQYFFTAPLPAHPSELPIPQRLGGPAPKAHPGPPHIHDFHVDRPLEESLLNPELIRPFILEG
T2 sequence (O60563 whole entry partner): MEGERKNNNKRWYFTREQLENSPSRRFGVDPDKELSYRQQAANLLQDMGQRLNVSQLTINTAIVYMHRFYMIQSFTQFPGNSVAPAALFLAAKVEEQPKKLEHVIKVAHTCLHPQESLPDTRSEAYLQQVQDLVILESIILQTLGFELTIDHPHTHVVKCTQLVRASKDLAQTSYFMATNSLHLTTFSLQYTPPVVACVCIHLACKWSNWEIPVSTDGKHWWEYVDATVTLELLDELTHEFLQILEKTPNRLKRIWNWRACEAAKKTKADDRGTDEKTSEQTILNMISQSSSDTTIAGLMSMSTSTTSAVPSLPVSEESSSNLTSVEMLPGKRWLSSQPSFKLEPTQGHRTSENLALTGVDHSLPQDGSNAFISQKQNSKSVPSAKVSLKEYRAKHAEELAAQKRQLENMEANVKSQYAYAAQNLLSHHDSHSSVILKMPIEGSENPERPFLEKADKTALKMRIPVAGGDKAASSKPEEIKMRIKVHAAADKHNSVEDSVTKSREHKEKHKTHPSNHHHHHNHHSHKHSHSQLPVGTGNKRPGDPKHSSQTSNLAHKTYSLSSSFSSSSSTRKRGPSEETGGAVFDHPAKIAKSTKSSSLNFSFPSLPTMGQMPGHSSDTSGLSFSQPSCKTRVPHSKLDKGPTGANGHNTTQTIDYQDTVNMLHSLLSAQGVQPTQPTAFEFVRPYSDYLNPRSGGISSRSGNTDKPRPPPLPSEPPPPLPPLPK

SMILES	residual kinase activity ([1]; 0.3 µM)	residual kinase activity ([2]; 0.3 µM)	residual kinase activity ([3]; 0.3 µM)	residual kinase activity ([4]; 0.3 µM)	residual kinase activity ([5]; 0.3 µM)	residual kinase activity ([6]; 0.3 µM)	residual kinase activity ([7]; 0.3 µM)	residual kinase activity ([8]; 0.3 µM)	residual kinase activity ([9]; 0.3 µM)	also measured
COc1ccnc2[nH]cc(-c3cc(N)nc(N)c3)c12 [meriolin 16]	24 % of control	17 % of control	90 % of control	23 % of control	58 % of control	20 % of control	1 % of control	74 % of control	5 % of control	residual kinase activity ([1]; 0.03 µM): 77 % of control; residual kinase activity ([2]; 0.03 µM): 36 % of control; residual kinase activity ([3]; 0.03 µM): 92 % of control; residual kinase activity ([4]; 0.03 µM): 32 % of control; residual kinase activity ([5]; 0.03 µM): 63 % of control; residual kinase activity ([6]; 0.03 µM): 75 % of control; residual kinase activity ([7]; 0.03 µM): 6 % of control; residual kinase activity ([8]; 0.03 µM): 100 % of control; residual kinase activity ([9]; 0.03 µM): 31 % of control
c1ccc(CNc2cc(-c3c[nH]c4ncccc34)ccn2)cc1 [meriolin 36]	63 % of control	19 % of control	98 % of control	39 % of control	66 % of control	2 % of control	31 % of control	45 % of control	12 % of control	residual kinase activity ([1]; 3 µM): 23 % of control; residual kinase activity ([2]; 3 µM): 10 % of control; residual kinase activity ([3]; 3 µM): 76 % of control; residual kinase activity ([4]; 3 µM): 13 % of control; residual kinase activity ([5]; 3 µM): 22 % of control; residual kinase activity ([6]; 3 µM): 0 % of control; residual kinase activity ([7]; 3 µM): 4 % of control; residual kinase activity ([8]; 3 µM): 4 % of control; residual kinase activity ([9]; 3 µM): -10 % of control
